Values quoted from earlier work, collected in article PMC7904743, “WIDOCK: a reactive docking protocol for virtual screening of covalent inhibitors” (Journal of Computer-Aided Molecular Design, 2021).
Where two headings read alike, the source gives them in different places.

What was measured:
[1] = thiol reactivity, cited from earlier work
[2] = test system: NUDT7; conditions: protein labeling at 200 μM; experimental actives if % labeling higher than 50%; cited from earlier work
[3] = test system: OTUB2; conditions: experimental actives if % labeling higher than 50%, cited from earlier work
[4] = natural log of average rate constant k
[5] = natural logarithm of average rate constant
[6] = natural log of average kinetic rate constant
[7] = natural log of average rate constant

O=C(CCl)N1CCN(C(=O)Nc2ccccc2)CC1 [PCM-0102257, O=C(CCl)N1CCN(C(=O)Nc2ccccc2)CC1]
ln(avg k) [1, 4]: -15.051 | ln(avg k) [1, 5]: -15.051 | NUDT7 % labeling [2]: 7% | OTUB2 % labeling [3]: 0%

CC(C)(C)NC(=O)CN1CCN(C(=O)CCl)CC1 [PCM-0102302, CC(C)(C)NC(=O)CN1CCN(C(=O)CCl)CC1]
ln(avg k) [1, 4]: -15.639 | ln(avg k) [1, 5]: -15.639 | NUDT7 % labeling [2]: 8% | OTUB2 % labeling [3]: 13%

CC(C)(O)CNC(=O)CCl [PCM-0102554, CC(C)(O)CNC(=O)CCl]
ln(avg k) [1, 4]: -16.972 | ln(avg k) [1, 5]: -16.972 | NUDT7 % labeling [2]: 0% | OTUB2 % labeling [3]: 0%

O=C(CCl)Nc1ccc(Cl)c([N+](=O)[O-])c1 [PCM-0102316, O=C(CCl)Nc1ccc(Cl)c([N+](=O)[O-])c1]
ln(avg k) [1, 4]: -15.463 | ln(avg k) [1, 5]: -15.463 | NUDT7 % labeling [2]: 28% | OTUB2 % labeling [3]: 36%

Cc1ccc(NC(=O)NC(=O)CCl)cc1 [PCM-0102623, Cc1ccc(NC(=O)NC(=O)CCl)cc1]
ln(avg k) [1, 4]: -16.273 | ln(avg k) [1, 5]: -16.273 | NUDT7 % labeling [2]: 11% | OTUB2 % labeling [3]: 0%

O=C(CCl)N1c2ccccc2OCC1c1ccccc1 (stereo not shown) [PCM-0102266, O=C(CCl)N1c2ccccc2OCC1c1ccccc1]
ln(avg k) [1, 4]: -16.335 | ln(avg k) [1, 5]: -16.335 | NUDT7 % labeling [2]: 11% | OTUB2 % labeling [3]: 0%

O=C(CCl)N1CCC(c2nc3ccccc3s2)CC1 [PCM-0103068, O=C(CCl)N1CCC(c2nc3ccccc3s2)CC1]
ln(avg k) [1, 6]: -15.772 | ln(avg k) [1, 7]: -15.772 | NUDT7 % labeling [2]: 65% | OTUB2 % labeling ([3]; OTUB2 protein labeling): 0%

Cc1ccc(C(C)NC(=O)CCl)cc1C (stereo not shown) [PCM-0102270, Cc1ccc(C(C)NC(=O)CCl)cc1C]
ln(avg k) [1, 4]: -16.558 | ln(avg k) [1, 5]: -16.558 | NUDT7 % labeling [2]: 0% | OTUB2 % labeling [3]: 51%

COc1ccc2nc(NC(=O)CCl)sc2c1 [PCM-0102330, COc1ccc2nc(NC(=O)CCl)sc2c1]
ln(avg k) [1, 4]: -15.593 | ln(avg k) [1, 5]: -15.593 | NUDT7 % labeling [2]: 100% | OTUB2 % labeling [3]: 0%

Cc1ccc([N+](=O)[O-])c(NC(=O)CCl)c1C [PCM-0102511, Cc1ccc([N+](=O)[O-])c(NC(=O)CCl)c1C]
ln(avg k) [1, 4]: -16.700 | ln(avg k) [1, 5]: -16.700 | NUDT7 % labeling [2]: 15% | OTUB2 % labeling [3]: 7%

Cc1ccccc1CC(=O)NNC(=O)CCl [PCM-0102829, Cc1ccccc1CC(=O)NNC(=O)CCl]
ln(avg k) [1, 6]: -17.272 | ln(avg k) [1, 7]: -17.272 | NUDT7 % labeling [2]: 0% | OTUB2 % labeling ([3]; OTUB2 protein labeling): 30%

O=C(CCl)Nc1cc2ccccc2cc1C(=O)O [PCM-0102311, O=C(CCl)Nc1cc2ccccc2cc1C(=O)O]
ln(avg k) [1, 4]: -15.248 | ln(avg k) [1, 5]: -15.248 | NUDT7 % labeling [2]: 17% | OTUB2 % labeling [3]: 10%

O=C(CCl)Nc1nc2c(s1)CCC2 [PCM-0102457, O=C(CCl)Nc1nc2c(s1)CCC2]
ln(avg k) [1, 4]: -15.357 | ln(avg k) [1, 5]: -15.357 | NUDT7 % labeling [2]: 37% | OTUB2 % labeling [3]: 0%

O=C(CCl)Nc1cc(F)ccc1C(=O)O [PCM-0102247, O=C(CCl)Nc1cc(F)ccc1C(=O)O]
ln(avg k) [1, 4]: -16.882 | ln(avg k) [1, 5]: -16.882 | NUDT7 % labeling [2]: 0% | OTUB2 % labeling [3]: 0%

COc1ccc(C2CCCN2C(=O)CCl)cc1 (stereo not shown) [PCM-0102938, COc1ccc(C2CCCN2C(=O)CCl)cc1]
ln(avg k) [1, 6]: -15.798 | ln(avg k) [1, 7]: -15.798 | NUDT7 % labeling [2]: 100% | OTUB2 % labeling ([3]; OTUB2 protein labeling): 0%

COC(=O)c1ccc(Cl)c(NC(=O)CCl)c1 [PCM-0102764, COC(=O)c1ccc(Cl)c(NC(=O)CCl)c1]
ln(avg k) [1, 6]: -16.022 | ln(avg k) [1, 7]: -16.022 | NUDT7 % labeling [2]: 7% | OTUB2 % labeling ([3]; OTUB2 protein labeling): 29%

COc1cccc(NC(=O)CCl)c1 [PCM-0102410, COc1cccc(NC(=O)CCl)c1]
ln(avg k) [1, 4]: -15.888 | ln(avg k) [1, 5]: -15.888 | NUDT7 % labeling [2]: 0% | OTUB2 % labeling [3]: 0%

O=C(CCl)Nc1ccc(N2CCOCC2)cc1 [PCM-0102582, O=C(CCl)Nc1ccc(N2CCOCC2)cc1]
ln(avg k) [1, 4]: -15.715 | ln(avg k) [1, 5]: -15.715 | NUDT7 % labeling [2]: 0% | OTUB2 % labeling [3]: 54%

COc1ccc(Cl)cc1C(=O)NNC(=O)CCl [PCM-0102763, COc1ccc(Cl)cc1C(=O)NNC(=O)CCl]
ln(avg k) [1, 6]: -16.746 | ln(avg k) [1, 7]: -16.746 | NUDT7 % labeling [2]: 10% | OTUB2 % labeling ([3]; OTUB2 protein labeling): 64%

O=C(CCl)N(C1CCCC1)C1CC1 [PCM-0103064, O=C(CCl)N(C1CCCC1)C1CC1]
ln(avg k) [1, 6]: -16.942 | ln(avg k) [1, 7]: -16.942 | NUDT7 % labeling [2]: 0% | OTUB2 % labeling ([3]; OTUB2 protein labeling): 0%

Cc1ccc(S(C)(=O)=O)cc1NC(=O)CCl [PCM-0102858, Cc1ccc(S(C)(=O)=O)cc1NC(=O)CCl]
ln(avg k) [1, 6]: -16.253 | ln(avg k) [1, 7]: -16.253 | NUDT7 % labeling [2]: 0% | OTUB2 % labeling ([3]; OTUB2 protein labeling): 0%

Cc1ccc(NC(=O)NC(=O)CCl)cc1C [PCM-0102119, Cc1ccc(NC(=O)NC(=O)CCl)cc1C]
ln(avg k) [1, 4]: -16.034 | ln(avg k) [1, 5]: -16.034 | NUDT7 % labeling [2]: 9% | OTUB2 % labeling [3]: 0%

O=C(CCl)N1CCN(Cc2cccs2)CC1 [PCM-0102243, O=C(CCl)N1CCN(Cc2cccs2)CC1]
ln(avg k) [1, 4]: -15.851 | ln(avg k) [1, 5]: -15.851 | NUDT7 % labeling [2]: 8% | OTUB2 % labeling [3]: 0%

Cc1cc(S(N)(=O)=O)cc(NC(=O)CCl)c1C [PCM-0102165, Cc1cc(S(N)(=O)=O)cc(NC(=O)CCl)c1C]
ln(avg k) [1, 4]: -16.164 | ln(avg k) [1, 5]: -16.164 | NUDT7 % labeling [2]: 9% | OTUB2 % labeling [3]: 12%

CC(C)(C)OC(=O)N1CCCC(CNC(=O)CCl)C1 (stereo not shown) [PCM-0102923, CC(C)(C)OC(=O)N1CCCC(CNC(=O)CCl)C1]
ln(avg k) [1, 6]: -16.613 | ln(avg k) [1, 7]: -16.613 | NUDT7 % labeling [2]: 0% | OTUB2 % labeling ([3]; OTUB2 protein labeling): 20%

CC1CCC(NC(=O)CCl)CC1 (stereo not shown) [PCM-0102913, CC1CCC(NC(=O)CCl)CC1]
ln(avg k) [1, 6]: -16.529 | ln(avg k) [1, 7]: -16.529 | NUDT7 % labeling [2]: 0% | OTUB2 % labeling ([3]; OTUB2 protein labeling): 8%

O=C(CCl)Nc1oncc1-c1ccccc1 [PCM-0102746, O=C(CCl)Nc1oncc1-c1ccccc1]
ln(avg k) [1, 6]: -16.489 | ln(avg k) [1, 7]: -16.489 | NUDT7 % labeling [2]: 0% | OTUB2 % labeling ([3]; OTUB2 protein labeling): 64%

CC(C)N(C(=O)CCl)C1CCCCC1 [PCM-0102941, CC(C)N(C(=O)CCl)C1CCCCC1]
ln(avg k) [1, 6]: -16.528 | ln(avg k) [1, 7]: -16.528 | NUDT7 % labeling [2]: 17% | OTUB2 % labeling ([3]; OTUB2 protein labeling): 0%

O=C(CCl)N1CCOC(c2ccc(F)cc2)C1 (stereo not shown) [PCM-0102615, O=C(CCl)N1CCOC(c2ccc(F)cc2)C1]
ln(avg k) [1, 4]: -15.513 | ln(avg k) [1, 5]: -15.513 | NUDT7 % labeling [2]: 0% | OTUB2 % labeling [3]: 0%

O=C(CCl)NCC1CCC1 [PCM-0103065, O=C(CCl)NCC1CCC1]
ln(avg k) [1, 6]: -17.462 | ln(avg k) [1, 7]: -17.462 | NUDT7 % labeling [2]: 0% | OTUB2 % labeling ([3]; OTUB2 protein labeling): 0%

O=C(CCl)N1CCN(Cc2ccc(Cl)cc2)CC1 [PCM-0102818, O=C(CCl)N1CCN(Cc2ccc(Cl)cc2)CC1]
ln(avg k) [1, 6]: -15.454 | ln(avg k) [1, 7]: -15.454 | NUDT7 % labeling [2]: 0% | OTUB2 % labeling ([3]; OTUB2 protein labeling): 17%
